Source: ChEMBL document CHEMBL1147293, “Immunosuppressive compounds from a deep water marine sponge, Agelas flabelliformis” (J Nat Prod, 1989)

Key:
Splenocyte [1] = assay: Immunosuppressive activity against mouse splenocytes assessed as [3H]thymidine incorporation at 500 ug/ml after 88 hrs by liquid scintillation counting; assay type: functional
Splenocyte [2] = assay: Immunosuppressive activity against mouse splenocytes assessed as [3H]thymidine incorporation at 250 ug/ml after 88 hrs by liquid scintillation counting; assay type: functional
Splenocyte [3] = assay: Immunosuppressive activity against mouse splenocytes assessed as [3H]thymidine incorporation at 125 ug/ml after 88 hrs by liquid scintillation counting; assay type: functional
Splenocyte [4] = assay: Immunosuppressive activity against mouse splenocytes assessed as [3H]thymidine incorporation at 62.5 ug/ml after 88 hrs by liquid scintillation counting; assay type: functional
Splenocyte [5] = assay: Immunosuppressive activity against mouse splenocytes assessed as [3H]thymidine incorporation at 31.3 ug/ml after 88 hrs by liquid scintillation counting; assay type: functional
Splenocyte [6] = assay: Immunosuppressive activity against mouse splenocytes assessed as [3H]thymidine incorporation at 15.6 ug/ml after 88 hrs by liquid scintillation counting; assay type: functional
Splenocyte [7] = assay: Immunosuppressive activity against mouse splenocytes assessed as [3H]thymidine incorporation at 7.8 ug/ml after 88 hrs by liquid scintillation counting; assay type: functional
Splenocyte [8] = assay: Immunosuppressive activity against mouse splenocytes assessed as [3H]thymidine incorporation at 3.9 ug/ml after 88 hrs by liquid scintillation counting; assay type: functional
Splenocyte [9] = assay: Immunosuppressive activity against mouse splenocytes assessed as [3H]thymidine incorporation at 2.0 ug/ml after 88 hrs by liquid scintillation counting; assay type: functional
Splenocyte [10] = assay: Immunosuppressive activity against mouse splenocytes assessed as [3H]thymidine incorporation at 1.0 ug/ml after 88 hrs by liquid scintillation counting; assay type: functional
Splenocyte [11] = assay: Immunosuppressive activity against mouse splenocytes assessed as [3H]thymidine incorporation at 0.5 ug/ml after 88 hrs by liquid scintillation counting; assay type: functional
[12] = Cytotoxicity against mouse splenocytes assessed as cell viability at 500 ug/ml after 88 hrs by MTT assay; assay type: cell-based, Splenocyte; conditions: read-out: Activity
[13] = Cytotoxicity against mouse splenocytes assessed as cell viability at 250 ug/ml after 88 hrs by MTT assay; assay type: cell-based, Splenocyte; conditions: read-out: Activity
[14] = Cytotoxicity against mouse splenocytes assessed as cell viability at 125 ug/ml after 88 hrs by MTT assay; assay type: cell-based, Splenocyte; conditions: read-out: Activity
[15] = Cytotoxicity against mouse splenocytes assessed as cell viability at 62.5 ug/ml after 88 hrs by MTT assay; assay type: cell-based, Splenocyte; conditions: read-out: Activity
[16] = Cytotoxicity against mouse splenocytes assessed as cell viability at 31.3 ug/ml after 88 hrs by MTT assay; assay type: cell-based, Splenocyte; conditions: read-out: Activity
[17] = Cytotoxicity against mouse splenocytes assessed as cell viability at 15.6 ug/ml after 88 hrs by MTT assay; assay type: cell-based, Splenocyte; conditions: read-out: Activity
[18] = Cytotoxicity against mouse splenocytes assessed as cell viability at 7.8 ug/ml after 88 hrs by MTT assay; assay type: cell-based, Splenocyte; conditions: read-out: Activity
[19] = Cytotoxicity against mouse splenocytes assessed as cell viability at 3.9 ug/ml after 88 hrs by MTT assay; assay type: cell-based, Splenocyte; conditions: read-out: Activity
[20] = Cytotoxicity against mouse splenocytes assessed as cell viability at 2.0 ug/ml after 88 hrs by MTT assay; assay type: cell-based, Splenocyte; conditions: read-out: Activity
[21] = Cytotoxicity against mouse splenocytes assessed as cell viability at 1.0 ug/ml after 88 hrs by MTT assay; assay type: cell-based, Splenocyte; conditions: read-out: Activity
[22] = Cytotoxicity against mouse splenocytes assessed as cell viability at 0.5 ug/ml after 88 hrs by MTT assay; assay type: cell-based, Splenocyte; conditions: read-out: Activity
[23] = Cytotoxicity against mouse splenocytes assessed as cell viability at 0.3 ug/ml after 88 hrs by MTT assay; assay type: cell-based, Splenocyte; conditions: read-out: Activity
Splenocyte [24] = assay: Immunosuppressive activity against concanavalin A-activated mouse splenocytes assessed as [3H]thymidine incorporation at 500 ug/ml after 72 hrs by liquid scintillation counting; assay type: functional
Splenocyte [25] = assay: Immunosuppressive activity against concanavalin A-activated mouse splenocytes assessed as [3H]thymidine incorporation at 250 ug/ml after 72 hrs by liquid scintillation counting; assay type: functional
Splenocyte [26] = assay: Immunosuppressive activity against concanavalin A-activated mouse splenocytes assessed as [3H]thymidine incorporation at 125 ug/ml after 72 hrs by liquid scintillation counting; assay type: functional
Splenocyte [27] = assay: Immunosuppressive activity against concanavalin A-activated mouse splenocytes assessed as [3H]thymidine incorporation at 62.5 ug/ml after 72 hrs by liquid scintillation counting; assay type: functional
Splenocyte [28] = assay: Immunosuppressive activity against concanavalin A-activated mouse splenocytes assessed as [3H]thymidine incorporation at 31.3 ug/ml after 72 hrs by liquid scintillation counting; assay type: functional
Splenocyte [29] = assay: Immunosuppressive activity against concanavalin A-activated mouse splenocytes assessed as [3H]thymidine incorporation at 15.6 ug/ml after 72 hrs by liquid scintillation counting; assay type: functional
Splenocyte [30] = assay: Immunosuppressive activity against concanavalin A-activated mouse splenocytes assessed as [3H]thymidine incorporation at 7.8 ug/ml after 72 hrs by liquid scintillation counting; assay type: functional
Splenocyte [31] = assay: Immunosuppressive activity against concanavalin A-activated mouse splenocytes assessed as [3H]thymidine incorporation at 3.9 ug/ml after 72 hrs by liquid scintillation counting; assay type: functional
Splenocyte [32] = assay: Immunosuppressive activity against concanavalin A-activated mouse splenocytes assessed as [3H]thymidine incorporation at 2.0 ug/ml after 72 hrs by liquid scintillation counting; assay type: functional
Splenocyte [33] = assay: Immunosuppressive activity against concanavalin A-activated mouse splenocytes assessed as [3H]thymidine incorporation at 1.0 ug/ml after 72 hrs by liquid scintillation counting; assay type: functional
Splenocyte [34] = assay: Immunosuppressive activity against concanavalin A-activated mouse splenocytes assessed as [3H]thymidine incorporation at 0.5 ug/ml after 72 hrs by liquid scintillation counting; assay type: functional
Splenocyte [35] = assay: Immunosuppressive activity against concanavalin A-activated mouse splenocytes assessed as [3H]thymidine incorporation at 0.3 ug/ml after 72 hrs by liquid scintillation counting; assay type: functional
Splenocyte [36] = assay: Immunosuppressive activity against mouse splenocytes assessed as [3H]thymidine incorporation at 0.25 ug/ml after 88 hrs by liquid scintillation counting; assay type: functional
[37] = Cytotoxicity against mouse splenocytes assessed as cell viability at 0.25 ug/ml after 88 hrs by MTT assay; assay type: cell-based, Splenocyte; conditions: read-out: Activity

SMILES | Activity (Splenocyte [1]) | Activity (Splenocyte [2]) | Activity (Splenocyte [3]) | Activity (Splenocyte [4]) | Activity (Splenocyte [5]) | Activity (Splenocyte [6]) | Activity (Splenocyte [7]) | Activity (Splenocyte [8]) | Activity (Splenocyte [9]) | Activity (Splenocyte [10]) | Activity (Splenocyte [11]) | viability at 88 h, 500 ug/ml [12] | viability at 88 h, 250 ug/ml [13] | viability at 88 h, 125 ug/ml [14] | viability at 88 h, 62.5 ug/ml [15] | viability at 88 h, 31.3 ug/ml [16] | viability at 88 h, 15.6 ug/ml [17] | viability at 88 h, 7.8 ug/ml [18] | viability at 88 h, 3.9 ug/ml [19] | viability at 88 h, 2 ug/ml [20] | other results
O=C(O)c1cc(Br)c(Br)[nH]1 | 100% | 100% | 100% | 100% | 100% | 100% | 40% | 59% | 31% | 13% | 0% | 10% | 0% | 12% | 27% | 27% | 66% | 99% | 80% | 99% | viability at 88 h, 1 ug/ml [21]: 95%; viability at 88 h, 0.5 ug/ml [22]: 113%; viability at 88 h, 0.3 ug/ml [23]: 100%; Activity (Splenocyte [24]): 83%; Activity (Splenocyte [25]): 99%; Activity (Splenocyte [26]): 83%; Activity (Splenocyte [27]): 83%; Activity (Splenocyte [28]): 83%; Activity (Splenocyte [29]): 84%; Activity (Splenocyte [30]): 64%; Activity (Splenocyte [31]): 70%; Activity (Splenocyte [32]): 29%; Activity (Splenocyte [33]): 43%; Activity (Splenocyte [34]): 39%; Activity (Splenocyte [35]): 50%
CC(C)CCC[C@@H](C)[C@H]1CC[C@H]2C3=C(CC[C@]12C)[C@@]1(C)CC[C@H](O)[C@@H](C)[C@@H]1CC3 | 100% | 100% | 100% | 100% | 100% | 100% | 100% | 100% | 100% | 81% | 46% | 6% | 10% | 28% | 72% | 85% | 92% | 80% | 99% | 77% | viability at 88 h, 1 ug/ml [21]: 97%; viability at 88 h, 0.5 ug/ml [22]: 118%; Activity (Splenocyte [36]): 0%; viability at 88 h, 0.25 ug/ml [37]: 104%
